Assay results as given in patent US8772489B2, “Optically active 2-hydroxy tetrahydrothienopyridine derivatives, preparation method and use in manufacture of medicament thereof” (Jiangsu Vcare PharmaTech Co. Ltd., priority 2010, dated 2014).
Where two headings read alike, the source gives them in different places.

Key:
[1] = tested on: platelet aggregation; experiment: animal or person; assay type: in vivo; conditions: Rattus norvegicus, read-out: Aggregation inhibition (%)
Description: The positive control and the test compounds (prepared in the above examples) were formulated in 0.5% CMC-Na (carboxymethylcellulose sodium) into suspensions for administration to animals.
Animals: male SD rats, weighed about 250 g, and supplied by Shanghai Super-B&K Laboratory Animal Corp. Ltd. Animal certificate No.: 2008001605451, and license No.: SCXK (Hu); SCXK (Hu) 2008-0016.
Instruments: a centrifuge (80-2 bench top low-speed centrifuge), an automatic platelet aggregation tester (STELLEXLG-PAPER-I platelet coagulation/aggregation analyzer), and others.
Methods: the pharmacological activity test of the compounds of the present invention for platelet aggregation was performed following Born's turbidimetric method (Nature, 1962, 194(4832): 927). An agglomeration-promoting substance, adenosine diphosphate (ADP), was added to a platelet rich plasma (PRP), and stirred to allow platelets to aggregate. […] This experiment can be used to evaluate the platelet aggregation effect induced by the test compounds administrated in-vivo or in-vitro.
The PRP was adjusted with a platelet poor plasma (PPP) to maintain the platelet counts at […]. The PRP was taken into a test cup, and incubated at 37° C. for 10 min. Light transmission was adjusted to 0% with PRP and to 100% with PPP for each measurement. By using ADP (with a final concentration of 5 μM) as an inducer, the platelet aggregation percentages were measured through the turbidimetric method using a platelet aggregation tester, and statistically compared by t-test. The platelet aggregation inhibition was calculated by the equation: platelet aggregation inhibition (%)=[1−(aggregation percent in dosed tube/aggregation percent in control tube)]×100%.

[2] = target: human carboxylesterase 1 (hCE1) (Homo sapiens, UniProt P23141); conditions: in vivo, J Pharmacol Exp Ther, 2006, 319: 1467; cited from earlier work
human carboxylesterase 1 (hCE1), sequence (P23141 18-567): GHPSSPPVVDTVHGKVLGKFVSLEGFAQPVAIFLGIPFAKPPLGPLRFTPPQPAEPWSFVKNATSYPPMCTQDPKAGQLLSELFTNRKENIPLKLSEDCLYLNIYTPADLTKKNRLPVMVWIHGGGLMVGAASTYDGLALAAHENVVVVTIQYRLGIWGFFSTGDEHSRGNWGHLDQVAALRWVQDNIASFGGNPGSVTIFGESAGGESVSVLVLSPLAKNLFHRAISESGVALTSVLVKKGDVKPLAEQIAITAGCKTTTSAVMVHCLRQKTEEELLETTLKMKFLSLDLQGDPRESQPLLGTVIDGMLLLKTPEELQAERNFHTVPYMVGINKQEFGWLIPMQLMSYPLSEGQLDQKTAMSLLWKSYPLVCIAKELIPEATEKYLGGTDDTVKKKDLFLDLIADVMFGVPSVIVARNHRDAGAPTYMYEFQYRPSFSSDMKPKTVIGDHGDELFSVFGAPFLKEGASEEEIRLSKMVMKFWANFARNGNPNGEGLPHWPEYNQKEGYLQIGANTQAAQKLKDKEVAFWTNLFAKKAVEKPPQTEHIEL

[3] = male SD rats, oral gavage 3 mg/kg, blood after 2 hrs, ADP 5 μM

## COC(=O)[C@H](c1ccccc1Cl)N1CCc2sc(OC(=O)c3ccccc3)cc2C1 [Compound I-1, (S)-Methyl 2-(2-benzoyloxy-6,7-dihydrothieno[3,2-c]pyridin-5(4H)-yl)-2-(2-chlorophenyl)-acetate]
[1]; [3]
  inhibition at 3 mg/kg: 41.1%
other
  melting point: 84 to 86 °C

## COC(=O)[C@H](c1ccccc1Cl)N1CCc2sc(OC(=O)c3cccnc3)cc2C1 [Compound I-6, (S)-methyl 2-(2-nicotinoyloxy-6,7-dihydrothieno[3,2-c]pyridin-5(4H)-yl)-2-(2-chlorophenyl)-acetate]
[1]; [3]
  inhibition at 3 mg/kg: 31.3%
other
  melting point: 92 to 94 °C

## CCC(C)(C)C(=O)Oc1cc2c(s1)CCN([C@H](C(=O)OC)c1ccccc1Cl)C2 [Compound I-8, (S)-Methyl 2-(2-(2,2-dimethylbutanoyloxy)-6,7-dihydrothieno[3,2-c]pyridin-5(4H)-yl)-2-(2-chlorophenyl)-acetate]
[1]; [3]
  inhibition at 3 mg/kg: 35.7%
other
  melting point: 98 to 100 °C

## COC(=O)[C@H](c1ccccc1Cl)N1CCc2sc(OC(=O)/C=C/c3ccccc3)cc2C1 [Compound I-9, (S)-methyl 2-(2-cinnamoyloxy-6,7-dihydrothieno[3,2-c]pyridin-5(4H)-yl)-2-(2-chlorophenyl)-acetate]
[1]; [3]
  inhibition at 3 mg/kg: 30.3%
other
  melting point: 122 to 124 °C

## COC(=O)[C@H](c1ccccc1Cl)N1CCc2sc(OC(=O)c3ccc([N+](=O)[O-])cc3)cc2C1 [Compound I-10, (S)-methyl 2-(2-(4-nitrobenzoyloxy)-6,7-dihydrothieno[3,2-c]pyridin-5(4H)-yl)-2-(2-chlorophenyl)-acetate]
[1]; [3]
  inhibition at 3 mg/kg: 36.8%
other
  melting point: 100 to 102 °C

## COC(=O)[C@H](c1ccccc1Cl)N1CCc2sc(OC(=O)COc3ccccc3)cc2C1 [Compound I-13, (S)-Methyl 2-(2-(phenoxyacetoxy)-6,7-dihydrothieno[3,2-c]pyridin-5(4H)-yl)-2-(2-chlorophenyl)-acetate]
[1]; [3]
  inhibition at 3 mg/kg: 10.1%
other
  melting point: 104 to 106 °C

## CCOC(=O)Oc1cc2c(s1)CCN([C@H](C(=O)OC)c1ccccc1Cl)C2 [Compound I-14, (S)-Methyl 2-(2-(ethoxycarbonyloxy)-6,7-dihydrothieno[3,2-c]pyridin-5(4H)-yl)-2-(2-chlorophenyl)-acetate]
[1]; [3]
  inhibition at 3 mg/kg: 62.9%
other
  melting point: 42 to 44 °C

## COC(=O)[C@H](c1ccccc1Cl)N1CCc2sc(OC(=O)OC(C)C)cc2C1 [Compound I-16, (S)-Methyl 2-(2-(isopropoxycarbonyloxy)-6,7-dihydrothieno[3,2-c]pyridin-5(4H)-yl)-2-(2-chlorophenyl)-acetate]
[1]; [3]
  inhibition at 3 mg/kg: 52.7%

## COC(=O)[C@H](c1ccccc1Cl)N1CCc2sc(OC(=O)N(C)C)cc2C1 [Compound I-18, (S)-Methyl 2-(2-(N,N-dimethylcarbamoyloxy)-6,7-dihydrothieno[3,2-c]pyridin-5(4H)-yl)-2-(2-chlorophenyl)-acetate]
[1]; po, 2 h
  inhibition at 3 mg/kg: 48.2%
other
  melting point: 96 to 98 °C

## COC(=O)[C@H](c1ccccc1F)N1CCc2sc(OC(C)=O)cc2C1 [Compound I-19, (S)-Methyl 2-(2-acetoxy-6,7-dihydrothieno[3,2-c]pyridin-5 (4H)-yl)-2-(2-fluorophenyl)-acetate]
[1]; [3]
  inhibition at 3 mg/kg: 63.5%

## COC(=O)[C@H](c1ccc(Cl)cc1)N1CCc2sc(OC(C)=O)cc2C1 [Compound I-20, (S)-Methyl 2-(2-acetoxy-6,7-dihydrothieno[3,2-c]pyridin-5(4H)-yl)-2-(4-chlorophenyl)-acetate]
[1]; [3]
  inhibition at 3 mg/kg: 17.6%

## COC(=O)[C@H](c1ccccc1)N1CCc2sc(OC(C)=O)cc2C1 [Compound I-21, (S)-Methyl 2-(2-acetoxy-6,7-dihydrothieno[3,2-c]pyridin-5 (4H)-yl)-2-phenyl-acetate]
[1]; [3]
  inhibition at 3 mg/kg: 9.1%

## COC(=O)[C@H](c1ccccc1Cl)N1CCc2sc(OC(=O)N3CCCC3)cc2C1 [Compound I-22, (S)-Methyl 2-(2-(pyrrolidine-1-carbonyloxy)-6,7-dihydrothieno[3,2-c]pyridin-5(4H)-yl)-2-(2-chlorophenyl)-acetate]
[1]; po, 2 h
  inhibition at 3 mg/kg: 20.3%

## COC(=O)[C@@H](c1ccccc1Cl)N1CCc2sc(OC(C)=O)cc2C1 [I-2′]
[1]; [3]
  inhibition at 3 mg/kg: 27.1%
[1]; male SD rats, oral gavage 10 mg/kg, blood after 2 hrs, ADP 5 μM
  inhibition at 10 mg/kg: 55.3%

## COC(=O)[C@H](c1ccccc1Cl)N1CCc2sccc2C1 [clopidogrel]
[2]
  share of the prototype drug hydrolyzed by hCE1 in the liver into an inactive carboxylic derivative: 85%
